In US20210221812A1, “MATRINE a-KETOAMINE COMPOUNDS, PREPARATION METHOD THEREFOR AND USE THEREOF” (SHANGHAI XINGYE PHARMACEUTICAL TECHNOLOGY CO., LTD, priority 2018, published 2021):
Read-outs that look alike come from different tables or passages of the source. Each block holds one compound with its values, some of them ahead of it.

Columns and labels:
TNF-α = TNF-α activity inhibiting assay (LPS-stimulated peripheral blood, ELISA); type: cell-based, human; conditions: compound 20 μM, LPS 10 ng/mL, 6 hours, diluted peripheral blood of healthy volunteers; for inhibition at 20 µM: Homo sapiens, read-out: TNF-α inhibition rate (%)
Method: Methods: Peripheral blood from healthy volunteers was collected with EDTA anticoagulant tubes. After being diluted 5-fold with 1640 medium (Gibco, USA), the blood was added to 96-well cell culture plates (Costar, USA) and then treated with 10 μL solution of the compound of general formula (I) of the present invention in DMSO (Sigma, USA), the final concentration of the compound was 20 μM with the final concentration of DMSO was 0.2%. After incubation for 60 minutes in an incubator at 37° C. under 5% CO2, 10 μL LPS (Sigma, USA) was added to the reaction system, and the final concentration was 10 ng/mL. After further culturing for 6 hours in the incubator at 37° C. under 5% CO2, the supernatant was collected. The content of TNF-α was determined by ELISA (BD Biosciences, USA). Absorbance was detected at OD450 nm with a microplate reader, with OD 650 nm as reference. The control, a solution containing 0.2% DMSO medium, was as 0% inhibition. Raw data and standard curves were recorded. The four-parameter drug inhibition curve was plotted by XL-fit software and the inhibition rate of each compound was calculated.

Lovo cells = test: MTT tumor cell growth inhibition, Lovo; type: cell-based; conditions: 48 h, read-out: Tumors growth-inhibitory activity (IC50) Lovo
Method: (§1) Using MTT method to determine the growth inhibition activity of the matrine compounds on Lovo, MGC-803, Mia-paca2, HpeG-2, A549, k562, and Panc-1 cells in vitro. Logarithmic growth phase of Lovo, MGC-803, Mia-paca2, HpeG-2, A549, k562, Panc-1 cells were inoculated into 96-well plates (purchased from Institute of Biochemical Cells, Chinese Academy of Sciences, and cultured according to conventional tumor cell culture methods) at a density of 4×10^4/mL and 180 μL/well; after the cells adhered to the wall, 20 μL of drug solution was added to each well and matined the final drug concentrations were 0.1 μM, 1 μM, 10 μM, 50 μM, 100 μM respectively. After 48 h, 5 mg/mL MTT solution was added (20 μL/well) and maintained in a CO2 incubator for 3-4 h. After that, discarding the supernatant carefully, and DMSO was added (200 μL/well) when the residual liquid was air-dried, and shook for 0.5-1 h until the residual crystals was dissolved. The absorbance OD was measured at 492 nm by a microplate reader. GraphPad Prism 5 software was used to calculate the IC50 value.

A549 cells = test: MTT tumor cell growth inhibition, A549; type: cell-based; conditions: 48 h, read-out: Tumors growth-inhibitory activity (IC50) A549
Method: as §1

k562 cells = test: MTT tumor cell growth inhibition, k562; type: cell-based; conditions: 48 h, read-out: Tumors growth-inhibitory activity (IC50) k562
Method: as §1

Mia-paca2 cells = test: MTT tumor cell growth inhibition, Mia-paca2; type: cell-based; conditions: read-out: Tumors growth-inhibitory activity (IC50) Mia-paca2
Method: as §1

Panc-1 cells = test: MTT tumor cell growth inhibition, Panc-1; type: cell-based; conditions: 48 h, read-out: Tumors growth-inhibitory activity (IC50) Panc-1
Method: as §1

MGC-803 cells = test: MTT tumor cell growth inhibition, MGC-803; type: cell-based; conditions: 48 h, read-out: Tumors growth-inhibitory activity (IC50) MGC-803
Method: as §1

HpeG-2 cells = test: MTT tumor cell growth inhibition, HpeG-2; type: cell-based; conditions: 48 h, read-out: Tumors growth-inhibitory activity (IC50) HpeG-2
Method: as §1

SMILES: Nc1cccc2c1C(=O)N(C1CC[C@@H]3[C@H]4CCCN5CCC[C@H](CN3C1=O)[C@@H]45)C2=O (stereo partly drawn) [GJD 27]
inhibition at 20 µM (TNF-α): > 50%

SMILES: O=C1CCC[C@@H]2[C@H]3CCCN4CCC[C@@H](CN12)[C@@H]34 [Matrine, matrine]
IC50 (Lovo cells; Homo sapiens): 50 to 100 µM
IC50 (A549 cells; Homo sapiens): > 100 µM
inhibition at 20 µM (TNF-α): < 50%
IC50 (k562 cells; Homo sapiens): > 100 µM
IC50 (Mia-paca2 cells; Homo sapiens, MIA PaCa-2, 48 h): > 100 µM
IC50 (Panc-1 cells; Homo sapiens): > 100 µM
IC50 (MGC-803 cells; Homo sapiens): > 100 µM
IC50 (HpeG-2 cells): 50 to 100 µM

SMILES: CC(=O)Nc1cccc2c1C(=O)N(C1CC[C@@H]3[C@H]4CCCN5CCC[C@@H](CN3C1=O)[C@@H]45)C2=O (stereo partly drawn) [GJD 13]
inhibition at 20 µM (TNF-α): > 50%

IC50 (Lovo cells; Homo sapiens): 50 to 100 µM
IC50 (A549 cells; Homo sapiens): 50 to 100 µM
IC50 (k562 cells; Homo sapiens): 50 to 100 µM
IC50 (Mia-paca2 cells; Homo sapiens, MIA PaCa-2, 48 h): 50 to 100 µM
IC50 (Panc-1 cells; Homo sapiens): 50 to 100 µM
IC50 (MGC-803 cells; Homo sapiens): > 100 µM
IC50 (HpeG-2 cells): < 50 µM
SMILES: N#Cc1cccc2c1C(=O)N(C1CC[C@@H]3[C@H]4CCCN5CCC[C@@H](CN3C1=O)[C@@H]45)C2=O (stereo partly drawn) [GJD 06]
inhibition at 20 µM (TNF-α): > 50%

SMILES: Nc1ccc2c(c1)C(=O)N(C1CC[C@@H]3[C@H]4CCCN5CCC[C@@H](CN3C1=O)[C@@H]45)C2=O (stereo partly drawn) [GJD 18]
inhibition at 20 µM (TNF-α): < 50%

SMILES: Nc1cccc2c1CN(C1CC[C@@H]3[C@H]4CCCN5CCC[C@@H](CN3C1=O)[C@@H]45)C2=O (stereo partly drawn) [GJD 35]
inhibition at 20 µM (TNF-α): > 50%

SMILES: Nc1ccccc1C(=O)NC1CC[C@@H]2[C@H]3CCCN4CCC[C@@H](CN2C1=O)[C@@H]34 (stereo partly drawn) [GJD 49]
inhibition at 20 µM (TNF-α): > 50%

SMILES: O=C1c2ccccc2C(=O)N1C1=CC[C@@H]2[C@H]3CCCN4CCC[C@@H](CN2C1=O)[C@@H]34 [GJD 22]
inhibition at 20 µM (TNF-α): > 50%

IC50 (Lovo cells): < 50 µM
IC50 (A549 cells): < 50 µM
IC50 (k562 cells): < 50 µM
IC50 (Mia-paca2 cells; 48 h): 50 to 100 µM
IC50 (Panc-1 cells): 50 to 100 µM
IC50 (MGC-803 cells): 50 to 100 µM
IC50 (HpeG-2 cells): < 50 µM
SMILES: Cc1cccc2c1C(=O)N(C1=CC[C@@H]3[C@H]4CCCN5CCC[C@@H](CN3C1=O)[C@@H]45)C2=O [GJD 24]

SMILES: CC(C)Nc1cccc2c1C(=O)N(C1CC[C@@H]3[C@H]4CCCN5CCC[C@@H](CN3C1=O)[C@@H]45)C2=O (stereo partly drawn) [GJD 12]
inhibition at 20 µM (TNF-α): > 50%

SMILES: Nc1ccc2c(c1)C(=O)N(C1CC[C@@H]3[C@H]4CCCN5CCC[C@@H](CN3C1=O)[C@@H]45)C2 (stereo partly drawn) [GJD 41]
inhibition at 20 µM (TNF-α): > 50%

IC50 (Lovo cells; Homo sapiens): 50 to 100 µM
IC50 (A549 cells; Homo sapiens): 50 to 100 µM
IC50 (k562 cells; Homo sapiens): < 50 µM
IC50 (Mia-paca2 cells; Homo sapiens, MIA PaCa-2, 48 h): 50 to 100 µM
IC50 (Panc-1 cells; Homo sapiens): 50 to 100 µM
IC50 (MGC-803 cells; Homo sapiens): 50 to 100 µM
IC50 (HpeG-2 cells): < 50 µM
SMILES: O=C(Nc1cccc2c1CN(C1CC[C@@H]3[C@H]4CCCN5CCC[C@@H](CN3C1=O)[C@@H]45)C2=O)c1ccccc1 (stereo partly drawn) [GJD 34]

SMILES: O=C1c2cccc(O)c2C(=O)N1C1CC[C@@H]2[C@H]3CCCN4CCC[C@@H](CN2C1=O)[C@@H]34 (stereo partly drawn) [GJD 10]
TNF-α inhibition rate (%) (TNF-α): ≥50%

SMILES: O=C1c2cccc(F)c2C(=O)N1C1CC[C@@H]2[C@H]3CCC[N+]4([O-])CCC[C@@H](CN2C1=O)[C@@H]34 (stereo partly drawn) [GJD 65]
TNF-α inhibition rate (%) (TNF-α): ≥50%

SMILES: C#Cc1cccc2c1C(=O)N(C1CC[C@@H]3[C@H]4CCCN5CCC[C@@H](CN3C1=O)[C@@H]45)C2=O (stereo partly drawn) [GJD 11]
inhibition at 20 µM (TNF-α): < 50%

SMILES: O=C1c2cccc(Cl)c2C(=O)N1C1CC[C@@H]2[C@H]3CCCN4CCC[C@@H](CN2C1=O)[C@@H]34 (stereo partly drawn) [GJD 04]
inhibition at 20 µM (TNF-α): > 50%

SMILES: CS(=O)(=O)Nc1cccc2c1C(=O)N(C1CC[C@@H]3[C@H]4CCCN5CCC[C@@H](CN3C1=O)[C@@H]45)C2=O (stereo partly drawn) [GJD 14]
inhibition at 20 µM (TNF-α): > 50%

SMILES: NC1CC[C@@H]2[C@H]3CCCN4CCC[C@@H](CN2C1=O)[C@@H]34 (stereo partly drawn) [Compound M-3, 14-amino-matrine]
IC50 (Lovo cells; Homo sapiens): 50 to 100 µM
IC50 (A549 cells; Homo sapiens): 50 to 100 µM
IC50 (k562 cells; Homo sapiens): 50 to 100 µM
IC50 (Mia-paca2 cells; Homo sapiens, MIA PaCa-2, 48 h): > 100 µM
IC50 (Panc-1 cells; Homo sapiens): > 100 µM
IC50 (MGC-803 cells; Homo sapiens): > 100 µM
IC50 (HpeG-2 cells): 50 to 100 µM

SMILES: Cc1cccc2c1CN(C1CC[C@@H]3[C@H]4CCCN5CCC[C@@H](CN3C1=O)[C@@H]45)C2=O (stereo partly drawn) [GJD 38]
TNF-α inhibition rate (%) (TNF-α): >50%
